Test results from PubChem BioAssay (NCI).
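Cells were grown in 96-well plates and exposed to each compound for 48 hours at five concentrations; endpoints were interpolated linearly between bracketing concentrations, or set to the highest concentration if not reached. The concentration for full growth arrest is given as TGI.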

Assays:
Test in all cases: inhibition of tumour cell growth, NCI panel, 48 h
786-0 renal = system: 786-0 renal
SK-OV-3 ovarian = system: SK-OV-3 ovarian
NCI/ADR-RES ovarian = system: NCI/ADR-RES ovarian
CAKI-1 renal = system: CAKI-1 renal
T-47D breast = system: T-47D breast
M14 melanoma = system: M14 melanoma
K-562 leukemia = system: K-562 leukemia
RPMI-8226 leukemia = system: RPMI-8226 leukemia
SF-268 CNS = system: SF-268 CNS
NCI-H23 lung = system: NCI-H23 lung
RXF 393 renal = system: RXF 393 renal
SW-620 colon = system: SW-620 colon
MDA-MB-435 = system: MDA-MB-435
HOP-62 NSCLC = system: HOP-62 NSCLC
A549 NSCLC = system: A549 NSCLC
MOLT-4 leukemia = system: MOLT-4 leukemia
OVCAR-4 ovarian = system: OVCAR-4 ovarian
NCI-H460 lung = system: NCI-H460 lung
MCF7 breast = system: MCF7 breast
COLO 205 colon = system: COLO 205 colon
SK-MEL-5 melanoma = system: SK-MEL-5 melanoma
SK-MEL-2 melanoma = system: SK-MEL-2 melanoma
IGROV1 ovarian = system: IGROV1 ovarian
CCRF-CEM leukemia = system: CCRF-CEM leukemia
MALME-3M melanoma = system: MALME-3M melanoma
U251 CNS = system: U251 CNS
UACC-62 melanoma = system: UACC-62 melanoma
SK-MEL-28 melanoma = system: SK-MEL-28 melanoma
OVCAR-5 ovarian = system: OVCAR-5 ovarian
SNB-75 CNS = system: SNB-75 CNS
ACHN renal = system: ACHN renal
SR leukemia = system: SR leukemia
OVCAR-8 ovarian = system: OVCAR-8 ovarian
NCI-H226 lung = system: NCI-H226 lung
SF-295 CNS = system: SF-295 CNS
MDA-MB-231 breast = system: MDA-MB-231 breast
HT29 colon = system: HT29 colon
EKVX NSCLC = system: EKVX NSCLC
UO-31 renal = system: UO-31 renal
DU-145 prostate = system: DU-145 prostate
HS 578T breast = system: HS 578T breast
TK-10 renal = system: TK-10 renal
SF-539 CNS = system: SF-539 CNS
OVCAR-3 ovarian = system: OVCAR-3 ovarian
HL-60(TB) leukemia = system: HL-60(TB) leukemia
UACC-257 melanoma = system: UACC-257 melanoma
SNB-19 CNS = system: SNB-19 CNS
NCI-H522 lung = system: NCI-H522 lung
LOX IMVI melanoma = system: LOX IMVI melanoma
KM12 colon = system: KM12 colon
PC-3 prostate = system: PC-3 prostate
HCT-116 colon = system: HCT-116 colon
SN12C renal = system: SN12C renal
HCT-15 colon = system: HCT-15 colon

With `COc1cc2ccc3ccncc3c2cc1OC` as the compound, how does the TGI (786-0 renal) read?
Its TGI is over 10 µM.

What about the TGI (SK-OV-3 ovarian) of the same compound?
Its TGI is over 10 µM.

And the TGI (NCI/ADR-RES ovarian)?
The TGI was over 10 µM.

What about the TGI (CAKI-1 renal) of the same compound?
The TGI was over 10 µM.

And the TGI (T-47D breast)?
The TGI was over 10 µM.

What about the TGI (M14 melanoma) of the same compound?
Its TGI is over 10 µM.

What about the TGI (K-562 leukemia) of the same compound?
Its TGI is over 10 µM.

What about the TGI (RPMI-8226 leukemia) of the same compound?
The TGI was over 10 µM.

What about the TGI (SF-268 CNS) of the same compound?
The TGI was over 10 µM.

What about the TGI (NCI-H23 lung) of the same compound?
Its TGI is over 10 µM.

And the TGI (RXF 393 renal)?
The TGI was over 10 µM.

What about the TGI (SW-620 colon) of the same compound?
The TGI was over 10 µM.

What about the TGI (MDA-MB-435) of the same compound?
Its TGI is over 10 µM.

And the TGI (HOP-62 NSCLC)?
The TGI was over 10 µM.

And the TGI (A549 NSCLC)?
The TGI was over 10 µM.

What about the TGI (MOLT-4 leukemia) of the same compound?
The TGI was over 10 µM.

And the TGI (OVCAR-4 ovarian)?
Its TGI is over 10 µM.

And the TGI (NCI-H460 lung)?
Its TGI is over 10 µM.

And the TGI (MCF7 breast)?
Its TGI is over 10 µM.

And the TGI (COLO 205 colon)?
The TGI was over 10 µM.

And the TGI (SK-MEL-5 melanoma)?
The TGI was over 10 µM.

What about the TGI (SK-MEL-2 melanoma) of the same compound?
The TGI was over 10 µM.

What about the TGI (IGROV1 ovarian) of the same compound?
The TGI was over 10 µM.

What about the TGI (CCRF-CEM leukemia) of the same compound?
The TGI was over 10 µM.

What about the TGI (MALME-3M melanoma) of the same compound?
The TGI was over 10 µM.

What about the TGI (U251 CNS) of the same compound?
The TGI was over 10 µM.

What about the TGI (UACC-62 melanoma) of the same compound?
Its TGI is over 10 µM.

What about the TGI (SK-MEL-28 melanoma) of the same compound?
The TGI was over 10 µM.

What about the TGI (OVCAR-5 ovarian) of the same compound?
The TGI was over 10 µM.

What about the TGI (SNB-75 CNS) of the same compound?
Its TGI is over 10 µM.

What about the TGI (ACHN renal) of the same compound?
Its TGI is over 10 µM.

And the TGI (SR leukemia)?
Its TGI is over 10 µM.

For `CC1=C(N2CC2)C(=O)c2ccccc2C1=O`, which TGI (786-0 renal) is on record?
The TGI was 3.47 µM.

And the TGI (SK-OV-3 ovarian)?
Its TGI is over 100 µM.

What about the TGI (NCI/ADR-RES ovarian) of the same compound?
Its TGI is 3.14 µM.

What about the TGI (OVCAR-8 ovarian) of the same compound?
Its TGI is 2.82 µM.

And the TGI (CAKI-1 renal)?
Its TGI is 1.79 µM.

And the TGI (T-47D breast)?
Its TGI is 28.7 µM.

What about the TGI (NCI-H226 lung) of the same compound?
The TGI was 6.21 µM.

And the TGI (M14 melanoma)?
Its TGI is 5.03 µM.

What about the TGI (K-562 leukemia) of the same compound?
The TGI was 3.5 µM.

What about the TGI (SF-268 CNS) of the same compound?
Its TGI is 5.14 µM.

And the TGI (RXF 393 renal)?
Its TGI is 2.64 µM.

And the TGI (SF-295 CNS)?
Its TGI is 2.48 µM.

And the TGI (SW-620 colon)?
The TGI was 1.68 µM.

What about the TGI (MDA-MB-435) of the same compound?
Its TGI is 2.84 µM.

And the TGI (MDA-MB-231 breast)?
The TGI was 32.8 µM.

What about the TGI (HOP-62 NSCLC) of the same compound?
The TGI was 3.21 µM.

And the TGI (HT29 colon)?
Its TGI is 3.07 µM.

What about the TGI (A549 NSCLC) of the same compound?
Its TGI is 2.17 µM.

What about the TGI (EKVX NSCLC) of the same compound?
The TGI was 0.744 µM.

What about the TGI (MOLT-4 leukemia) of the same compound?
Its TGI is 16.3 µM.

And the TGI (OVCAR-4 ovarian)?
Its TGI is 7.36 µM.

What about the TGI (NCI-H460 lung) of the same compound?
The TGI was 2.39 µM.

What about the TGI (MCF7 breast) of the same compound?
The TGI was 1.82 µM.

What about the TGI (COLO 205 colon) of the same compound?
The TGI was 2.05 µM.

And the TGI (SK-MEL-5 melanoma)?
The TGI was 0.405 µM.

And the TGI (UO-31 renal)?
Its TGI is 10.6 µM.

What about the TGI (SK-MEL-2 melanoma) of the same compound?
Its TGI is 4.06 µM.

What about the TGI (DU-145 prostate) of the same compound?
The TGI was 0.276 µM.

What about the TGI (HS 578T breast) of the same compound?
The TGI was 4.89 µM.

What about the TGI (TK-10 renal) of the same compound?
The TGI was 6.48 µM.

And the TGI (SF-539 CNS)?
The TGI was 5.91 µM.

What about the TGI (IGROV1 ovarian) of the same compound?
The TGI was 8.58 µM.

And the TGI (OVCAR-3 ovarian)?
The TGI was 2.89 µM.

What about the TGI (CCRF-CEM leukemia) of the same compound?
The TGI was 15.5 µM.

What about the TGI (MALME-3M melanoma) of the same compound?
The TGI was 2.65 µM.

And the TGI (HL-60(TB) leukemia)?
The TGI was 17.1 µM.

And the TGI (UACC-257 melanoma)?
Its TGI is 1.94 µM.

And the TGI (SNB-19 CNS)?
The TGI was 6.27 µM.

What about the TGI (NCI-H522 lung) of the same compound?
Its TGI is 2.36 µM.

And the TGI (LOX IMVI melanoma)?
Its TGI is 4.98 µM.

And the TGI (U251 CNS)?
The TGI was 10.3 µM.

And the TGI (KM12 colon)?
Its TGI is 2.64 µM.

What about the TGI (UACC-62 melanoma) of the same compound?
Its TGI is 2.05 µM.

What about the TGI (SK-MEL-28 melanoma) of the same compound?
The TGI was 4.33 µM.

And the TGI (OVCAR-5 ovarian)?
Its TGI is 1.69 µM.

And the TGI (SNB-75 CNS)?
Its TGI is 2.32 µM.

And the TGI (PC-3 prostate)?
Its TGI is 3.87 µM.

And the TGI (ACHN renal)?
Its TGI is 1.07 µM.

And the TGI (HCT-116 colon)?
The TGI was 12 µM.

And the TGI (SN12C renal)?
The TGI was 2.09 µM.

What about the TGI (SR leukemia) of the same compound?
Its TGI is 0.279 µM.

What about the TGI (HCT-15 colon) of the same compound?
Its TGI is 3.52 µM.

What does the source list for `Cc1cc(NCCCCCCNc2cc(C)nc3ccc(N)cc23)c2cc(N)ccc2n1`?
TGI (SNB-19 CNS): > 100 µM; TGI (U251 CNS): > 100 µM
